What was measured:
Ad-TSHR-immunized mice = test: qualitative histological investigation of the thyroid; format: in vivo, BALB/c mice; conditions: 9x AdTSHR-treated mice, 1 mg/kg IV 4-weekly
Protocol: After euthanasia, dissection of the thyroid glands was performed under a stereomicroscope, as described before (22). Briefly, cross cuts at the level above the larynx and below the seventh cartilage ring were made and the glands with the tracheae and oesophagi were removed from the necks. Tissue blocks were kept in 4% neutral para-formaldehyde (PFA), washed in PBS 3 times and embedded in optimum cutting temperature (OCT) formulation (Tissue-Tek® O.C.T.™ compound, VWR Chemicals, Leuven, Belgium). Consecutive 5 μm-thick cross sections were cut at a fixed distance of 500 μm using a Leica microtome CM 1850 Cryostat (temperature at −19° C.) and mounted on Thermo Polysine slides (Thermo Scientific, Cat J2800AMNZ). The collected sections represented a total distance of ˜5-6 mm, and covered the whole thyroid region of each animal. The tissue sections were then stained with hematoxylin-eosin (HE) and examined using bright field illumination on a Zeiss upright microscope. Thyroid volumes (mm^3) were calculated from the sum of the areas of each section over the whole cutting region. Myocardial volumes (mm^3) were calculated in a similar way as described for thyroid glands from the sum of the areas of each section over whole cutting region (5 to 6 slides, depending on respective size of the hearts). The method has been described before (22). […]

[1] = test system: TSHR-overexpressing CHO cells JP2626; test: ex vivo TSHR-dependent cAMP stimulation in test cells; format: cell-based, human; conditions: 100 μg/ml test substance, anti-TSHR-antibody positive samples
Protocol: In FIG. 8 the effects of peptides on anti-TSHR antibody titers (A) and on cAMP stimulation in TSHR-expressing test cells (B) were studied ex vivo (anti-TSHR-antibody positive serum samples). Each measurement was carried out in 4 samples. Results are shown as % of untreated controls with standard errors of the means (SEM). Significance was tested by analysis of variance (ANOVA) between groups, followed by LSD post-hoc testing. **p<0.001, compared to controls
To investigate effects on TSHR-dependent cAMP stimulation ex vivo, TSHR-overexpressing CHO cells JP2626 were prepared as described above. Then, 100 μg/ml peptide 829, peptide of the invention 836 or fusion protein TSHR-Fc were added to the JP2626 cells. After incubation for 2.5 hours at 37° C. the cAMP release in the medium was measured in duplicates by a competitive immunoassay ELISA (#EMSCAMPL, Thermo Fisher Scientific, Waltham, Mass., USA).

Q: With “TSHR-Fc: fusion protein: first 289 amino acids of human TSH receptor (A-subunit), GGR linker and Fc portion of human IgG2” as the substance, how does the “mean histological scores of the thyroid” value (Ad-TSHR-immunized mice) read?
A: markedly better compared to the vehicle-treated group

Q: What about the “cAMP-stimulating potency in TSHR-expressing test cells ex vivo” value [1] of the same substance?
A: reduction of titer and activity

Source: patent US11459375B2, “Cyclic peptides for the treatment of Graves' disease” (advanceCOR GmbH, priority 2017, dated 2022)
